Data reported in PubChem BioAssay (NCI).
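Exposure lasted 48 hours, with cells grown in 96-well plates and compounds tested at five concentrations. Here, GI50 denotes the concentration required for 50% inhibition of growth. The concentration for full growth arrest is given as TGI.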

Experiments:
Assay in all cases: growth of human tumour cells (NCI), 48 h
IGROV1 ovarian = system: IGROV1 ovarian
CAKI-1 renal = system: CAKI-1 renal
OVCAR-4 ovarian = system: OVCAR-4 ovarian
A549 NSCLC = system: A549 NSCLC
M14 melanoma = system: M14 melanoma
PC-3 prostate = system: PC-3 prostate
NCI-H460 lung = system: NCI-H460 lung
MDA-MB-435 = system: MDA-MB-435
SK-MEL-2 melanoma = system: SK-MEL-2 melanoma
HCT-116 colon = system: HCT-116 colon
OVCAR-5 ovarian = system: OVCAR-5 ovarian
SR leukemia = system: SR leukemia
SF-268 CNS = system: SF-268 CNS
SN12C renal = system: SN12C renal
DU-145 prostate = system: DU-145 prostate
T-47D breast = system: T-47D breast
OVCAR-8 ovarian = system: OVCAR-8 ovarian
SNB-75 CNS = system: SNB-75 CNS
786-0 renal = system: 786-0 renal
NCI-H226 lung = system: NCI-H226 lung
UACC-257 melanoma = system: UACC-257 melanoma
A498 renal = system: A498 renal
HS 578T breast = system: HS 578T breast
KM12 colon = system: KM12 colon
SF-295 CNS = system: SF-295 CNS
RPMI-8226 leukemia = system: RPMI-8226 leukemia
NCI-H522 lung = system: NCI-H522 lung
TK-10 renal = system: TK-10 renal
HOP-92 NSCLC = system: HOP-92 NSCLC
SK-OV-3 ovarian = system: SK-OV-3 ovarian
MCF7 breast = system: MCF7 breast
MALME-3M melanoma = system: MALME-3M melanoma
HOP-62 NSCLC = system: HOP-62 NSCLC
UACC-62 melanoma = system: UACC-62 melanoma
CCRF-CEM leukemia = system: CCRF-CEM leukemia
OVCAR-3 ovarian = system: OVCAR-3 ovarian
K-562 leukemia = system: K-562 leukemia
ACHN renal = system: ACHN renal
SNB-19 CNS = system: SNB-19 CNS
HCT-15 colon = system: HCT-15 colon
RXF 393 renal = system: RXF 393 renal
HT29 colon = system: HT29 colon
BT-549 breast = system: BT-549 breast
HL-60(TB) leukemia = system: HL-60(TB) leukemia
MDA-MB-231 breast = system: MDA-MB-231 breast
LOX IMVI melanoma = system: LOX IMVI melanoma
SW-620 colon = system: SW-620 colon
UO-31 renal = system: UO-31 renal
NCI/ADR-RES ovarian = system: NCI/ADR-RES ovarian
SF-539 CNS = system: SF-539 CNS
NCI-H23 lung = system: NCI-H23 lung
U251 CNS = system: U251 CNS
MOLT-4 leukemia = system: MOLT-4 leukemia
EKVX NSCLC = system: EKVX NSCLC
SK-MEL-28 melanoma = system: SK-MEL-28 melanoma
SK-MEL-5 melanoma = system: SK-MEL-5 melanoma
COLO 205 colon = system: COLO 205 colon
HCC-2998 colon = system: HCC-2998 colon

Cc1ccc(Cl)cc1Nc1nc(C(F)(F)F)ccc1C(=O)N1CCN(c2ccc(F)cc2)CC1
GI50 (IGROV1 ovarian): 0.21 µM
TGI (IGROV1 ovarian): 27.2 µM
GI50 (CAKI-1 renal): 1.53 µM
TGI (CAKI-1 renal): 14.2 µM
GI50 (OVCAR-4 ovarian): 10.8 µM
TGI (OVCAR-4 ovarian): 27.9 µM
GI50 (A549 NSCLC): 15.3 µM
TGI (A549 NSCLC): 37.1 µM
GI50 (M14 melanoma): 15 µM
TGI (M14 melanoma): 31.3 µM
GI50 (PC-3 prostate): 10.2 µM
TGI (PC-3 prostate): 33.3 µM
GI50 (NCI-H460 lung): 16 µM
TGI (NCI-H460 lung): 36.9 µM
GI50 (MDA-MB-435): 14.2 µM
TGI (MDA-MB-435): 29.6 µM
GI50 (SK-MEL-2 melanoma): 16.1 µM
TGI (SK-MEL-2 melanoma): 37.1 µM
GI50 (HCT-116 colon): 11.9 µM
TGI (HCT-116 colon): 26.3 µM
GI50 (OVCAR-5 ovarian): 12.1 µM
TGI (OVCAR-5 ovarian): 30.1 µM
GI50 (SR leukemia): 17.6 µM
TGI (SR leukemia): 80.6 µM
GI50 (SF-268 CNS): 15.8 µM
TGI (SF-268 CNS): 36.5 µM
GI50 (SN12C renal): 15 µM
TGI (SN12C renal): 28.6 µM
GI50 (DU-145 prostate): 17.4 µM
TGI (DU-145 prostate): 36.6 µM
GI50 (T-47D breast): 6.25 µM
TGI (T-47D breast): 42.6 µM
GI50 (OVCAR-8 ovarian): 16.6 µM
TGI (OVCAR-8 ovarian): 50.2 µM
TGI (SNB-75 CNS): 14.2 µM
GI50 (786-0 renal): 14.7 µM
TGI (786-0 renal): 29.4 µM
GI50 (NCI-H226 lung): 15.5 µM
TGI (NCI-H226 lung): 31.3 µM
GI50 (UACC-257 melanoma): 19.7 µM
TGI (UACC-257 melanoma): 46.5 µM
GI50 (A498 renal): 6.03 µM
TGI (A498 renal): 20.2 µM
GI50 (HS 578T breast): 4.31 µM
TGI (HS 578T breast): 22.3 µM
GI50 (KM12 colon): 11.3 µM
TGI (KM12 colon): 23.4 µM
GI50 (SF-295 CNS): 15.6 µM
TGI (SF-295 CNS): 32.5 µM
GI50 (RPMI-8226 leukemia): 15.5 µM
TGI (RPMI-8226 leukemia): 52.6 µM
GI50 (NCI-H522 lung): 12.3 µM
TGI (NCI-H522 lung): 30.2 µM
GI50 (TK-10 renal): 11.2 µM
TGI (TK-10 renal): 26.4 µM
GI50 (HOP-92 NSCLC): 12.5 µM
TGI (HOP-92 NSCLC): 30.4 µM
GI50 (SK-OV-3 ovarian): 15.6 µM
TGI (SK-OV-3 ovarian): 36.1 µM
GI50 (MCF7 breast): 11.7 µM
TGI (MCF7 breast): 38.7 µM
GI50 (MALME-3M melanoma): 11.1 µM
TGI (MALME-3M melanoma): 23.4 µM
GI50 (HOP-62 NSCLC): 14.7 µM
TGI (HOP-62 NSCLC): 29.8 µM
GI50 (UACC-62 melanoma): 11.5 µM
TGI (UACC-62 melanoma): 24.1 µM
GI50 (CCRF-CEM leukemia): 15.1 µM
TGI (CCRF-CEM leukemia): 53.5 µM
GI50 (OVCAR-3 ovarian): 10.7 µM
TGI (OVCAR-3 ovarian): 24 µM
GI50 (K-562 leukemia): 9.53 µM
TGI (K-562 leukemia): 30 µM
GI50 (ACHN renal): 11.8 µM
TGI (ACHN renal): 47.7 µM
GI50 (SNB-19 CNS): 14.9 µM
TGI (SNB-19 CNS): 30.5 µM
GI50 (HCT-15 colon): 13.2 µM
TGI (HCT-15 colon): 29.3 µM
GI50 (RXF 393 renal): 11.2 µM
TGI (RXF 393 renal): 29.9 µM
GI50 (HT29 colon): 10.7 µM
TGI (HT29 colon): 23.9 µM
GI50 (BT-549 breast): 12.8 µM
TGI (BT-549 breast): 26.3 µM
GI50 (HL-60(TB) leukemia): 12.7 µM
TGI (HL-60(TB) leukemia): 37.8 µM
GI50 (MDA-MB-231 breast): 10.3 µM
TGI (MDA-MB-231 breast): 24.4 µM
GI50 (LOX IMVI melanoma): 11.9 µM
TGI (LOX IMVI melanoma): 24.6 µM
GI50 (SW-620 colon): 12.2 µM
TGI (SW-620 colon): 24.6 µM
GI50 (UO-31 renal): 4.49 µM
TGI (UO-31 renal): 22.5 µM
GI50 (NCI/ADR-RES ovarian): 13.3 µM
TGI (NCI/ADR-RES ovarian): 36.7 µM
GI50 (SF-539 CNS): 14.8 µM
TGI (SF-539 CNS): 30.2 µM
GI50 (NCI-H23 lung): 10.2 µM
TGI (NCI-H23 lung): 24.2 µM
GI50 (U251 CNS): 12.5 µM
TGI (U251 CNS): 25.5 µM
GI50 (MOLT-4 leukemia): 9.91 µM
TGI (MOLT-4 leukemia): 46.6 µM
GI50 (EKVX NSCLC): 12.8 µM
TGI (EKVX NSCLC): 45.4 µM
GI50 (SK-MEL-28 melanoma): 15.6 µM
TGI (SK-MEL-28 melanoma): 29.3 µM
GI50 (SK-MEL-5 melanoma): 12 µM
TGI (SK-MEL-5 melanoma): 24.3 µM
GI50 (COLO 205 colon): 15.8 µM
TGI (COLO 205 colon): 30.2 µM
GI50 (HCC-2998 colon): 12.7 µM
TGI (HCC-2998 colon): 26 µM
